Test results published in the supplement of paper PMC4862054.

Key:
Experiment in all cases: drug sensitivity score (DSS), CellTiter-Glo (DSS (AUC-based score)); higher = stronger drug effect (viability inhibition or cytotoxicity); extreme values may be limits of the assay
Conditions in all cases: incubation time: 72 h
MCF-10A = test system: MCF-10A
Outline: (§1)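 A drug sensitivity score was derived from the area under each fitted dose-response curve. Breast cancer cells (20 µl suspension) were seeded onto compound in 384-well plates, using 5 concentrations 10-fold apart over a compound-specific 10,000-fold range, and incubated 72 h. Readouts were CellTox Green fluorescence and then CellTiter-Glo luminescence, with every plate normalised to 0.1 % DMSO and a positive kill control.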

HCC1143 = test system: HCC1143
Outline: as §1

MFM-223 = test system: MFM-223
Outline: as §1

Hs578T = test system: Hs578T
Outline: as §1

MDA-MB-231 = test system: MDA-MB-231
Outline: as §1

MDA-MB-453 = test system: MDA-MB-453
Outline: as §1

DU-4475 = test system: DU-4475
Outline: as §1

SK-BR-3 = test system: SK-BR-3
Outline: as §1

Row | Structure (SMILES) | drug sensitivity score (MCF-10A) | drug sensitivity score (HCC1143) | drug sensitivity score (MFM-223) | drug sensitivity score (Hs578T) | drug sensitivity score (MDA-MB-231) | drug sensitivity score (MDA-MB-453) | drug sensitivity score (DU-4475) | drug sensitivity score (SK-BR-3)
1 | CN[C@@H]1C[C@H]2O[C@@](C)([C@@H]1OC)n1c3ccccc3c3c4c(c5c6ccccc6n2c5c31)C(=O)N[C@H]4O [UCN-01] | 27.8 | 19.7 | 16.6 | 27.5 | 28.1 | 17.3 | 19.9 | 24
2 | O=P1(NCCCl)OCCCN1CCCl (stereo not drawn) [Ifosfamide] | 0 | 0 | 0 | 0 | 0 | 0 | 0 | 0
3 | Cn1c(CCCC(=O)O)nc2cc(N(CCCl)CCCl)ccc21 [Bendamustine] | 0 | 0 | 0 | 0 | 0 | 0 | 0 | 0
4 | CCC1=C[C@@H]2CN(C1)Cc1c([nH]c3ccccc13)[C@@](C(=O)OC)(c1cc3c(cc1OC)N(C)[C@H]1[C@@](O)(C(=O)OC)[C@H](OC(C)=O)[C@]4(CC)C=CCN5CC[C@]31[C@@H]54)C2 [Vinorelbine] | 10.2 | 15.6 | 16 | 19.8 | 13.7 | 15.6 | 6.47 | 37.5
5 | CCC1(c2ccc(N)cc2)CCC(=O)NC1=O (stereo not drawn) [Aminoglutethimide] | 0 | 0 | 0 | 0 | 0 | 0 | 0 | 0
6 | NC(=O)Nc1cc(-c2cccc(F)c2)sc1C(=O)N[C@H]1CCCNC1 [AZD7762] | 3.48 | 4.03 | 0 | 3.86 | 5.67 | 5.03 | 0 | 3.78
